Test results: patent US20250179066A1, “ZWITTERIONIC ANTIBACTERIAL COMPOUNDS” (Hoffmann-La Roche Inc., priority 2022, published 2025)
Structures can show the parent of a compound that is named as a salt.

tested on: Acinetobacter baumannii ATCC17961; experiment: Antimicrobial susceptibility testing: 90% growth inhibitory concentration (IC90) determination; assay type: cell-based; conditions: Acinetobacter baumannii, ATCC17961, 16 h, 90% growth inhibitory concentration against Acinetobacter baumannii ATCC17961, Iso-Sensitest broth, OD 600 nm over 16 h; read-out: ATCC 17961 IC90
Experimental: The in vitro antimicrobial activity of the compounds was determined according to the following procedure: The assay used a 10-points Iso-Sensitest broth medium to measure quantitatively the in vitro activity of the compounds against Acinetobacter baumannii ATCC17961. Stock compounds in DMSO were serially twofold diluted (e.g. range from 10 to 0.0195 μM final concentration) in 384 wells microtiter plates and inoculated with 49 μL the bacterial suspension in Iso-Sensitest medium to have a final cell concentration of ˜5×10^(5) CFU/mL in a final volume/well of 50 μL/well. Microtiter plates were incubated at 35±2° C. Bacterial cell growth was determined with the measurement of optical density at λ=600 nm each min over a time course of 16 h. Growth inhibition was calculated during the logarithmic growth of the bacterial cells with determination of the concentration inhibiting 50% (IC50) and 90% (IC90) of the growth. Table 1 provides the 90% growth inhibitory concentrations (IC90) in micromoles per liter of the compounds of present invention obtained against the strain Acinetobacter baumannii ATCC17961.

Structure (SMILES) | IC90
Cn1c(-c2cn(-c3ccc4[nH]c(CO)cc4n3)nc2C(F)(F)F)cnc1C(=O)Nc1ccc(C(=O)N2CCN(C(=O)N3CC[N+](CC(=O)O)(CC4CNC4)CC3)CC2)c(Cl)c1 [Example 144, 2-[1-(azetidin-3-ylmethyl)-4-[4-[2-chloro-4-[[1-methyl-5-[1-(2-methylol-1H-pyrrolo[3,2-b]pyridin-5-yl)-3-(trifluoromethyl)pyrazol-4-yl]imidazole-2-carbonyl]amino]benzoyl]piperazine-1-carbonyl]piperazin-1-ium-1-yl]acetic acid. 1:1 2,2,2-trifluoroacetate] | 269 nM
Cn1c(-c2cn(-c3ccc4c(ccn4CCN)n3)nc2C(F)(F)F)cnc1C(=O)Nc1ccc(C(=O)N2CCN(C(=O)[C@H]3CC[N@+](CC(=O)O)(CC4CNC4)CC3)CC2)c(Cl)c1 [Example 190, cis-2-[4-[4-[4-[[5-[1-[1-(2-aminoethyl)pyrrolo[3,2-b]pyridin-5-yl]-3-(trifluoromethyl)pyrazol-4-yl]-1-methyl-imidazole-2-carbonyl]amino]-2-chloro-benzoyl]piperazine-1-carbonyl]-1-(azetidin-3-ylmethyl)piperidin-1-ium-1-yl]acetic acid. 1:1 hydrogen chloride. 1:1 chloride] | 199 nM
Cn1c(-c2cn(-c3ccc(NC4CCC4)cn3)nc2C(F)(F)F)cnc1C(=O)Nc1ccc(C(=O)N2CCN(C(=O)C3CC[N+](CC(=O)O)(CC4CNC4)CC3)CC2)c(Cl)c1 (stereo not shown) [Example 69, 2-[1-(azetidin-3-ylmethyl)-4-[4-[2-chloro-4-[[5-[1-[5-(cyclobutylamino)-2-pyridyl]-3-(trifluoromethyl)pyrazol-4-yl]-1-methyl-imidazole-2-carbonyl]amino]benzoyl]piperazine-1-carbonyl]piperidin-1-ium-1-yl]acetic acid. 1:1 formate] | 790 nM
Cn1c(-c2cn(-c3nc4ccccc4s3)nc2C(F)(F)F)cnc1C(=O)Nc1ccc(C(=O)N2CCN(C(=O)C3CC[N+](CC(=O)O)(CC4CNC4)CC3)CC2)c(Cl)c1 (stereo not shown) [Example 80, 2-[1-(azetidin-3-ylmethyl)-4-[4-[4-[[5-[1-(1,3-benzothiazol-2-yl)-3-(trifluoromethyl)pyrazol-4-yl]-1-methyl-imidazole-2-carbonyl]amino]-2-chloro-benzoyl]piperazine-1-carbonyl]piperidin-1-ium-1-yl]acetic acid. 1:1 formate] | 1200 nM
Cn1c(-c2cn(-c3ccc(N)cn3)nc2C(F)(F)F)cnc1C(=O)Nc1ccc(C(=O)N2CCN(C(=O)C3CC[N+](CC(=O)O)(CC4CNC4)CC3)CC2)c(Cl)c1 (stereo not shown) [Example 59, 2-[4-[4-[4-[[5-[1-(5-amino-2-pyridyl)-3-(trifluoromethyl)pyrazol-4-yl]-1-methyl-imidazole-2-carbonyl]amino]-2-chloro-benzoyl]piperazine-1-carbonyl]-1-(azetidin-3-ylmethyl)piperidin-1-ium-1-yl]acetic acid. 1:1 formate] | 650 nM
Cn1c(-c2cn(-c3cc4[nH]c(CCN)cc4cn3)nc2C(F)(F)F)cnc1C(=O)Nc1ccc(C(=O)N2CCN(C(=O)[C@H]3CC[N@+](CC(=O)O)(CC4CNC4)CC3)CC2)c(Cl)c1 [Example 142, cis-2-[4-[4-[4-[[5-[1-[2-(2-aminoethyl)-1H-pyrrolo[3,2-c]pyridin-6-yl]-3-(trifluoromethyl)pyrazol-4-yl]-1-methyl-imidazole-2-carbonyl]amino]-2-chloro-benzoyl]piperazine-1-carbonyl]-1-(azetidin-3-ylmethyl)piperidin-1-ium-1-yl]acetic acid;formate] | 69.5 nM
CN1CCN(C(=O)c2c[nH]c3cc(-n4cc(-c5cnc(C(=O)Nc6ccc(C(=O)N7CCN(C(=O)[C@H]8CC[N@+](CC(=O)O)(CC9CNC9)CC8)CC7)c(Cl)c6)n5C)c(C(F)(F)F)n4)ncc23)CC1 [Example 148, cis-2-[1-(azetidin-3-ylmethyl)-4-[4-[2-chloro-4-[[1-methyl-5-[1-[3-(4-methylpiperazine-1-carbonyl)-1H-pyrrolo[3,2-c]pyridin-6-yl]-3-(trifluoromethyl)pyrazol-4-yl]imidazole-2-carbonyl]amino]benzoyl]piperazine-1-carbonyl]piperidin-1-ium-1-yl]acetic acid. 1:1 2,2,2-trifluoroacetate] | 349 nM
Cn1c(-c2cn(-c3ccc(N)cn3)nc2C(F)(F)F)cnc1C(=O)Nc1ccc(C(=O)N2CCN(C(=O)C3CC[N+](CC(=O)O)(CC4CNC4)CC3)C3(CC3)C2)c(Cl)c1 (stereo not shown) [Example 86, 2-[4-[7-[4-[[5-[1-(5-amino-2-pyridyl)-3-(trifluoromethyl)pyrazol-4-yl]-1-methyl-imidazole-2-carbonyl]amino]-2-chloro-benzoyl]-4,7-diazaspiro[2.5]octane-4-carbonyl]-1-(azetidin-3-ylmethyl)piperidin-1-ium-1-yl]acetic acid. 1:1 formate] | 1370 nM
Cn1c(-c2cn(-c3ccc(N)cn3)nc2C(F)(F)F)cnc1C(=O)Nc1ccc(C(=O)N2CCC(C(=O)N3CC[N+](CCCN)(CC(=O)O)CC3)CC2)c(Cl)c1 [Example 75, 2-[1-(3-aminopropyl)-4-[1-[4-[[5-[1-(5-amino-2-pyridyl)-3-(trifluoromethyl)pyrazol-4-yl]-1-methyl-imidazole-2-carbonyl]amino]-2-chloro-benzoyl]piperidine-4-carbonyl]piperazin-1-ium-1-yl]acetic acid. 1:1 2,2,2-trifluoroacetate] | 950 nM
CN(C)c1ccc(-n2cc(-c3cnc(C(=O)Nc4ccc(C(=O)N5CCN(C(=O)C6CC[N+](CC(=O)O)(CC7CNC7)CC6)CC5)c(Cl)c4)n3C)c(C(F)(F)F)n2)cc1 (stereo not shown) [Example 46, 2-[1-(azetidin-3-ylmethyl)-4-[4-[2-chloro-4-[[5-[1-[4-(dimethylamino)phenyl]-3-(trifluoromethyl)pyrazol-4-yl]-1-methyl-imidazole-2-carbonyl]amino]benzoyl]piperazine-1-carbonyl]piperidin-1-ium-1-yl]acetic acid. 1:1 formate] | 500 nM
CN(C)c1ccc(-n2cc(-c3cnc(C(=O)Nc4ccc(C(=O)N5CCN(C(=O)C6CC[N+](CC(=O)O)(CC7CNC7)CC6)CC5)c(Cl)c4)n3C)c(C(F)(F)F)n2)cn1 (stereo not shown) [Example 49, 2-[1-(azetidin-3-ylmethyl)-4-[4-[2-chloro-4-[[5-[1-[6-(dimethylamino)-3-pyridyl]-3-(trifluoromethyl)pyrazol-4-yl]-1-methyl-imidazole-2-carbonyl]amino]benzoyl]piperazine-1-carbonyl]piperidin-1-ium-1-yl]acetic acid. 1:1 2,2,2-trifluoroacetate] | 520 nM

Other lines, results leading:

IC90 | Structure (SMILES)
361 nM | Cn1c(-c2cn(-c3ccc4[nH]c(CCC(N)=O)cc4n3)nc2C(F)(F)F)cnc1C(=O)Nc1ccc(C(=O)N2CCN(C(=O)[C@H]3CC[N@@+](CCCN)(CC(=O)O)CC3)CC2)c(Cl)c1 [Example 99, cis-2-[4-[4-[4-[[5-[1-[2-(3-amino-3-oxo-propyl)-1H-pyrrolo[3,2-b]pyridin-5-yl]-3-(trifluoromethyl)pyrazol-4-yl]-1-methyl-imidazole-2-carbonyl]amino]-2-chloro-benzoyl]piperazine-1-carbonyl]-1-(3-aminopropyl)piperidin-1-ium-1-yl]acetic acid;2,2,2-trifluoroacetate]
1100 nM | C[C@H]1CN(C(=O)c2ccc(NC(=O)c3ncc(-c4cn(-c5ccc(N)cn5)nc4C(F)(F)F)n3C)cc2Cl)CCN1C(=O)C1CC[N+](CC(=O)O)(CC2CNC2)CC1 (stereo partly drawn) [Example 77, 2-[4-[(2S)-4-[4-[[5-[1-(5-amino-2-pyridyl)-3-(trifluoromethyl)pyrazol-4-yl]-1-methyl-imidazole-2-carbonyl]amino]-2-chloro-benzoyl]-2-methyl-piperazine-1-carbonyl]-1-(azetidin-3-ylmethyl)piperidin-1-ium-1-yl]acetic acid. 1:1 formate]
242 nM | Cn1c(-c2cn(-c3ccc(N)cc3F)nc2C(F)(F)F)cnc1C(=O)Nc1ccc(C(=O)N2CCN(C(=O)N3CC[N+](CCCN)(CC(=O)O)CC3)CC2)c(Cl)c1 [Example 141, 2-[4-[4-[4-[[5-[1-(4-amino-2-fluoro-phenyl)-3-(trifluoromethyl)pyrazol-4-yl]-1-methyl-imidazole-2-carbonyl]amino]-2-chloro-benzoyl]piperazine-1-carbonyl]-1-(3-aminopropyl)piperazin-1-ium-1-yl]acetic acid. 1:1 2,2,2-trifluoroacetate]
682 nM | Cn1c(-c2cn(-c3ccc(NCCN)cn3)nc2C(F)(F)F)cnc1C(=O)Nc1ccc(C(=O)N2CCN(C(=O)C3CC[N+](C)(CC(=O)[O-])CC3)CC2)c(Cl)c1 (stereo not shown) [Example 201, 2-[4-[4-[4-[[5-[1-[5-(2-aminoethylamino)-2-pyridyl]-3-(trifluoromethyl)pyrazol-4-yl]-1-methyl-imidazole-2-carbonyl]amino]-2-chloro-benzoyl]piperazine-1-carbonyl]-1-methyl-piperidin-1-ium-1-yl]acetate]
460 nM | Cn1c(-c2cn(-c3nccs3)nc2C(F)(F)F)cnc1C(=O)Nc1ccc(C(=O)N2CCN(C(=O)C3CC[N+](CC(=O)O)(CC4CNC4)CC3)CC2)c(Cl)c1 (stereo not shown) [Example 43, 2-[1-(azetidin-3-ylmethyl)-4-[4-[2-chloro-4-[[1-methyl-5-[1-thiazol-2-yl-3-(trifluoromethyl)pyrazol-4-yl]imidazole-2-carbonyl]amino]benzoyl]piperazine-1-carbonyl]piperidin-1-ium-1-yl]acetic acid. 1:1 formate]
